Laboratory results from US11111235B2 (Denali Therapeutics Inc., priority 2016, dated 2021).

What was measured:
[1] = target: LRRK2 G2019S (Homo sapiens (Human), UniProt Q5S007, G2019S); test: LRRK2 G2019S TR-FRET biochemical assay (LRRKtide substrate); details: 134 μM ATP
Description: Materials: • LRRK2 G2019S enzyme • Substrate (LRRKtide) • ATP • TR-FRET dilution buffer • pLRRKtide antibody • 384-well assay plate • DMSO
Enzyme Reaction Conditions • 50 mM Tris pH 7.5, 10 mM MgCl2, 1 mM EGTA, 0.01% Brij-35.2 mM DTT • 5 nM LRRK2 • 134 μM ATP • 60 minute reaction time • 23° C. reaction temperature • 10 μL total reaction volume
Detection Reaction Conditions • 1× TR-FRET dilution buffer • 10 mM EDTA • 2 nM antibody • 23° C. reaction temperature • 10 μL total reaction volume
Compounds were prepared by initially diluting to 1 mM with DMSO. 35 μL of reference compound solution, 35 μL of test compound solution, and 35 μL HPE were successively added to the source plate (384-well assay plate, Labcyte). The plates were centrifuged at 2500 rpm for 1 minute and sealed in foil. POD was used to perform a 3.162 fold serial dilution and 100 nL of reference compound solution, test compound solution, HPE and ZPE were transferred to assay plates. The assay plate was centrifuged at 2500 rpm for 1 minute, and sealed with foil.
To perform the enzyme reaction, 5 μL of LRRKtide substrate and kinase mixture in assay buffer was added to all wells of the assay plate. The plate was centrifuged to concentrate the mixture at the bottom of the wells. The assay plate was incubated at 23° C. for 20 minutes. Following incubation, 5 μL of 2×ATP in assay buffer was added to each well, and plates were centrifuged to concentrate the mixture at the bottom of the wells. The plate was incubated at 23° C. for 60 minutes.
To perform the detection of the reaction, EDTA completely mixed in TR-FRET dilution buffer was added to antibody reagent. 10 μL of detection reagent was added to all wells of each well of the assay plate and the plate was centrifuged to concentrate the mixture at the bottom of the wells. The plate was then incubated at 23° C. for 60 minutes. Plates were read on Perkin Elmer Envision 2104 instrument in TR-FRET mode using 340 nm excitation filter, 520 nm fluorescence emission filter, and 490 or 495 nm terbium emission filter.

[2] = Metabolic stability in human liver microsomes; type: in vitro ADME; details: projected human hepatic clearance scaled from microsomal Clint, well-stirred model
Description: Metabolic stability of compounds was evaluated in human liver microsomes (from Corning or XenoTech, LLC) using a 96-well plate assay format. Compounds were incubated at 37° C. at […] final concentration in the microsomal matrix (0.5 mg/mL total protein) in the presence or absence of NADPH cofactor. An NADPH regenerating system, comprised of NADP, MgCl2, isocitric acid, and isocitrate dehydrogenase, was used in the assay. Enzymatic reactions were conducted for 0, 5, 10, 20, 30, or 60 min before termination by addition of acetonitrile containing tolbutamide and labetalol internal standards (100 ng/mL). After shaking for 10 min, plates were subjected to centrifugation (4000 rpm at 4° C.) for 20 min and supernatants were mixed 1:3 with HPLC grade water. Samples were analyzed by LC-MS/MS using appropriate MRM transitions for each analyte and internal standard (IS). Analyte/IS peak area ratios were used to determine percent compound remaining at each time point. Intrinsic clearance (Clint; expressed as mL·min^−1·mg^−1) was calculated from the first order elimination constant (k, min^−1) of test article decay and the volume of the incubation. These values were scaled to intrinsic organ clearance (Clint) using human specific scaling factors (48.8 mg microsomal protein per g liver; 25.7 g liver per kg body weight). Organ Clint was subsequently converted to hepatic clearance (CLhep, mL·min-1·kg-1) using the well-stirred model of hepatic elimination, where Qh is human hepatic blood flow (20.7 mL·min-1·kg-1).
CLhep is the projected human clearance in the liver based on the above in vitro assay. A lower value is indicative of less compound being removed by the liver.

Chain of LRRK2 G2019S (Q5S007 whole entry G2019S): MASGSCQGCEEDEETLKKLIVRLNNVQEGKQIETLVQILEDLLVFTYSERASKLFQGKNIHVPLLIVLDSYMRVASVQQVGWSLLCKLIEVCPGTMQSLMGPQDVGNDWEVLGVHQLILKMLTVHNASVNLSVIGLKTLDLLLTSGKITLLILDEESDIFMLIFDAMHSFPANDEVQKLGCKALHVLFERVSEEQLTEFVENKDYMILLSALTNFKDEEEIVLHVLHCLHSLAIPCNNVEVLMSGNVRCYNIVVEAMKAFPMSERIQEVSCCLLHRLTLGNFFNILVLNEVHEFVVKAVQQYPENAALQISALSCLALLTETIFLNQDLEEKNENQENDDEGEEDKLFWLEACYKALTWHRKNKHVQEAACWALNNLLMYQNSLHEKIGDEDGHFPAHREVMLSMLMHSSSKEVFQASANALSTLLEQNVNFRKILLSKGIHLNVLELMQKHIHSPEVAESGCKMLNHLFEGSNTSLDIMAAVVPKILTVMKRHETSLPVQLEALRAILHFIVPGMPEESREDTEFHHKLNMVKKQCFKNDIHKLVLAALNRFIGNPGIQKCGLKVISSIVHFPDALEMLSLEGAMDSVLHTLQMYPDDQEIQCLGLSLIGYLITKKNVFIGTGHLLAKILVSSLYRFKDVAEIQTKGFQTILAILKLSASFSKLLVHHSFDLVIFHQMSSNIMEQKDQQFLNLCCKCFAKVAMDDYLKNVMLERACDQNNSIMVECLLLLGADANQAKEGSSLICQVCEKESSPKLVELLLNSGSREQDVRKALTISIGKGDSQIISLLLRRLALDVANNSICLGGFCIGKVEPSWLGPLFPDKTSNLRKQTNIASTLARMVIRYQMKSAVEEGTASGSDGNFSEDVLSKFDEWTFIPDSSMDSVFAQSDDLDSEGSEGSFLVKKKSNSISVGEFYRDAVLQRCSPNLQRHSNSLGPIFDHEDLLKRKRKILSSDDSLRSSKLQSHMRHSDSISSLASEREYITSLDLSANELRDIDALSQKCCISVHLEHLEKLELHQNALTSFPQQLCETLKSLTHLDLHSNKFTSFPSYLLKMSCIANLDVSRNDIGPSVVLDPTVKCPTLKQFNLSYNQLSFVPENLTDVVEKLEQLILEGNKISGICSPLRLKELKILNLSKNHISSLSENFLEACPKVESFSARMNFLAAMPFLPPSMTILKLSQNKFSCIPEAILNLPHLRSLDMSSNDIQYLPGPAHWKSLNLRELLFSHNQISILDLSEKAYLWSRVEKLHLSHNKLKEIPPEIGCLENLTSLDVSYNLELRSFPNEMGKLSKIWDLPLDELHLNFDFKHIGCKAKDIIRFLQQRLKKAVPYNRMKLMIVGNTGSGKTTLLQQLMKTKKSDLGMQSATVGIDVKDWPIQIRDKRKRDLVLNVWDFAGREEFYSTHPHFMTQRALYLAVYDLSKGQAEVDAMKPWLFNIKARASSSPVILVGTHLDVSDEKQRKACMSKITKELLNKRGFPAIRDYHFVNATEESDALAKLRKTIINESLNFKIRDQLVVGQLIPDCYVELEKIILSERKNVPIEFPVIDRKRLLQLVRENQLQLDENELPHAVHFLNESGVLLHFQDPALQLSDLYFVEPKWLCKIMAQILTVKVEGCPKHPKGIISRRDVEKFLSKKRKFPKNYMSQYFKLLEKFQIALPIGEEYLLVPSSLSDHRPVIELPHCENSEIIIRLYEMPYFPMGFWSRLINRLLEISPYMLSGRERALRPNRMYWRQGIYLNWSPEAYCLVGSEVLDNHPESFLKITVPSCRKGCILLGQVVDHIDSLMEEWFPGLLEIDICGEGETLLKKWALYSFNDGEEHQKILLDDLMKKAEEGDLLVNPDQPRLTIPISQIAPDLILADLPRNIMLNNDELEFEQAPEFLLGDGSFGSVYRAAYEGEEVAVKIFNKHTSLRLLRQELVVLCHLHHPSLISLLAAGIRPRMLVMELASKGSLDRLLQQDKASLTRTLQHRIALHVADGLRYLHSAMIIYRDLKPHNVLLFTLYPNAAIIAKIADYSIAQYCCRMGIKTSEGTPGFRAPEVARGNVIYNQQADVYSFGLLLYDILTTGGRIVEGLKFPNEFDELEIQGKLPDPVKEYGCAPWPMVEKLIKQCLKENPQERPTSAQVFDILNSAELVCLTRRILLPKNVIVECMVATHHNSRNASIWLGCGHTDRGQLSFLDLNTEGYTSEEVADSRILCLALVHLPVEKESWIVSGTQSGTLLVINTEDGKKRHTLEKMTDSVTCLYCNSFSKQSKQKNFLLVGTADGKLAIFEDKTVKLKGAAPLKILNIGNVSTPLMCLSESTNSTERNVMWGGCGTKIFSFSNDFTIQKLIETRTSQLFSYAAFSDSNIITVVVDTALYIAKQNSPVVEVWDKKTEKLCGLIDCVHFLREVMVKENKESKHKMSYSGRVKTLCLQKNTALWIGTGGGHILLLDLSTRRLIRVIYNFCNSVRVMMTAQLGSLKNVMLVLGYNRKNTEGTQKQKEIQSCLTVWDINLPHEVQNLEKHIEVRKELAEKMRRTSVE

Row | Structure (SMILES) | IC50 ([1]; class symbols) [µM] | Human liver microsomes CLhep [2] [L/h/kg] | IC50 [1] [µM]
1 | CCNc1nc(Nc2cn(C3C[C@H]3C#N)nc2C2CC2)ncc1Br (single isomer, unassigned) [Compound 215] | < 0.03 |  | 
2 | CNc1nc(Nc2cnn(C3CCCC3(C)O)c2C)ncc1C(F)(F)F (centres unmarked) [Compound 30] | 0.03 to 0.06 |  | 
3 | [2H]C([2H])([2H])n1nc(C(C)(C)n2nccn2)cc1Nc1ncc(C(F)(F)F)c(NCC)n1 [Compound 34, N4-ethyl-N2-[1-(^2H3)methyl-3-[2-(2H-1,2,3-triazol-2-yl)propan-2-yl]-1H-pyrazol-5-yl]-5-(trifluoromethyl)pyrimidine-2,4-diamine] |  | 0.045 | 
4 | CCNc1nc(Nc2cn(C3(C)CCOC3=O)nc2C2CC2)ncc1C(F)(F)F (centres unmarked) [Compound 104] |  | 0.6954 | 0.00096
5 | CCNc1nc(Nc2cnn(C3CCCN(CC(F)F)C3)c2C)ncc1C(F)(F)F (centres unmarked) [Compound 116] | < 0.03 |  | 
6 | CCNc1nc(Nc2cn(C3(C)CCOC3=O)nc2Cl)ncc1C(F)(F)F (centres unmarked) [Compound 117] | < 0.03 |  | 
7 | CNc1nc(Nc2cn(C3(C)CCOC3=O)nc2C)ncc1C(F)(F)F (centres unmarked) [Compound 119] | < 0.03 |  | 
8 | CCNc1nc(Nc2cc(C3(C)CCOC3=O)nn2C2CC2)ncc1Br (centres unmarked) [Compound 150] |  | 0.66462 | 0.00122
9 | CNc1nc(Nc2cc(C3(C)CCOC3=O)nn2C2CC2)ncc1C(F)(F)F (centres unmarked) [Compound 155] |  | 0.3311 | 0.00195
10 | CCNc1nc(Nc2cc(C3(C)CCn4ncnc43)nn2C2CC2)ncc1C(F)(F)F (centres unmarked) [Compound 172] | < 0.03 | 1.19 | 0.00147
11 | CCNc1nc(Nc2cnn(C3CNCCC3(F)F)c2C)ncc1C(F)(F)F (centres unmarked) [Compound 200] | < 0.03 |  | 
12 | CCN1CCC(F)(F)C(n2ncc(Nc3ncc(C(F)(F)F)c(NC)n3)c2Cl)C1 (centres unmarked) [Compound 202] | < 0.03 |  | 
13 | CNc1nc(Nc2cn(C(C)(C)c3ncn(C)n3)nc2C)ncc1C(F)(F)F [Compound 218] |  | 0 | 

The next lines start with the values.

Row | IC50 ([1]; class symbols) [µM] | Human liver microsomes CLhep [2] [L/h/kg] | IC50 [1] [µM] | Structure (SMILES)
14 | < 0.03 |  |  | CCNc1nc(Nc2cn(C3C[C@@H]3C#N)nc2Cl)ncc1C(F)(F)F (single isomer, unassigned) [Compound 206]
15 | < 0.03 |  |  | CCNc1nc(Nc2cn(C3C[C@H]3C#N)nc2Cl)ncc1C(F)(F)F (single isomer, unassigned) [Compound 207]
16 | < 0.03 |  |  | CNc1nc(Nc2cn(C3C[C@@H]3C#N)nc2C2CC2)ncc1C(F)(F)F (single isomer, unassigned) [Compound 208]
17 | < 0.03 |  |  | CNc1nc(Nc2cn(C3C[C@H]3C#N)nc2C2CC2)ncc1C(F)(F)F (single isomer, unassigned) [Compound 209]
18 | < 0.03 |  |  | N#C[C@@H]1CC1n1cc(Nc2ncc(C(F)(F)F)c(NCC(F)F)n2)c(C2CC2)n1 (single isomer, unassigned) [Compound 210]
19 | < 0.03 |  |  | CCNc1nc(Nc2cn(C3C[C@@H]3C#N)nc2C2CC2)ncc1Br (single isomer, unassigned) [Compound 214]
20 | < 0.03 |  |  | CNc1nc(Nc2cnn(C3CN(C4COC4)CCC3(F)F)c2Cl)ncc1C(F)(F)F (centres unmarked) [Compound 28]
21 | < 0.03 |  |  | CCNc1nc(Nc2cnn3c2CC(C#N)C3)ncc1C(F)(F)F (centres unmarked) [Compound 52A]
22 | < 0.03 |  |  | CCNc1nc(Nc2cnn3c2CC(n2nccn2)C3)ncc1C(F)(F)F (centres unmarked) [Compound 54A]
23 | < 0.03 |  |  | COc1nc(Nc2cn(C3(C)CCNC3=O)nc2C)ncc1Br (centres unmarked) [Compound 64A]
24 | < 0.03 |  |  | CNc1nc(Nc2cn(C3(C)CCOC3=O)nc2Cl)ncc1C(F)(F)F (centres unmarked) [Compound 99]
25 | < 0.03 |  |  | CCNc1nc(Nc2cn(C3(C)CCOC3=O)nc2C)ncc1C(F)(F)F (centres unmarked) [Compound 100]
26 | < 0.03 |  |  | COc1nc(Nc2cn(C3(C)CCOC3=O)nc2C)ncc1Br (centres unmarked) [Compound 102]
27 | < 0.03 |  |  | Cc1nn(C2(C)CCOC2=O)cc1Nc1ncc(C(F)(F)F)c(C2CC2)n1 (centres unmarked) [Compound 103]
28 | < 0.03 | 0.99048 | 0.00105 | CCNc1nc(Nc2cn(C3(C)CCOC3=O)nc2C2CC2)ncc1Br (centres unmarked) [Compound 114]
